Experimental data as given in patent publication US11980774B2, “Illumination devices and related methods for phototherapeutic light treatments in the presence of vitamins” (priority 2021, dated 2024).
“Also recorded” adds a separate entry of the source. Read-outs that look alike come from different tables or passages of the source.

Key:
influenza A = assay type: cell-based; conditions: for reduction in viral loads of influenza A: 425 nm light 30 J/cm^2
human rhinovirus 1B = assay type: cell-based
[1] = system: human coronavirus OC43 (HCoV-OC43); experiment: 425 nm light inhibition of HCoV-OC43 in the presence of vitamins in artificial saliva, virus titer (PFU/mL); assay type: cell-based; conditions: 10 μM RFN in artificial saliva, doses as low as 7.5 J/cm^2 (up to 45 J/cm^2), FIG. 1B
Excerpt: FIGS. 1A to 1D are provided in the context of HCoV-OC43, which is generally known as one of the viruses associated with the common cold. FIG. 1A is a chart illustrating an experimental control where light treatments were applied to HCoV-OC43 samples in the absence of any vitamins. […] A first sample included HCoV-OC43 in only its corresponding media, and the other two samples further included different artificial saliva sources (labeled as Saliva 1 and Saliva 2 in FIG. 1A).
FIG. 1B is a chart illustrating light treatments on HCoV-OC43 samples where various amounts of riboflavin (abbreviated as RFN) were diluted in a same type of artificial saliva and added to the HCoV-OC43 samples.
FIG. 1C is a chart illustrating light treatments on HCoV-OC43 samples where various amounts of ascorbate (abbreviated as AA) and 10 μM of RFN were diluted in a same type of artificial saliva and added to the HCoV-OC43 samples. […] The constant amount of RFN (10 μM) was selected based on the improvements illustrated in FIG. 1B.
FIG. 1D is a chart illustrating light treatments on HCoV-OC43 samples where various amounts of ascorbate were diluted in a same type of artificial saliva and added to the HCoV-OC43 samples in the absence of riboflavin.

influenza B = conditions: 10 μM riboflavin; 425 nm light 30 J/cm^2; FIG. 6F
MERS-CoV = assay type: cell-based; conditions: 1 μM riboflavin with various amounts of ascorbate in artificial saliva; 425 nm light 15 J/cm^2; FIG. 4B

Cc1cc2nc3c(=O)[nH]c(=O)nc-3n(C[C@H](O)[C@H](O)[C@H](O)CO)c2cc1C [riboflavin]
inhibition in viral load of influenza A by riboflavin dosing alone (influenza A; 0 J/cm^2 (no light), 0.1-10 μM riboflavin, FIG. 6E): some inhibition | reduction in viral loads of influenza A (influenza A; 1 μM riboflavin, FIG. 6E): some reduction | reduction in viral loads of influenza A (influenza A; 10 μM riboflavin, FIG. 6E): substantial reduction; also recorded: dramatic reduction | change in viral loads of influenza A (influenza A; 10 μM riboflavin, 425 nm light 32 J/cm^2, FIG. 6D): dramatic decreases | reduction in viral loads of human rhinovirus 1B (human rhinovirus 1B; 10 μM riboflavin with various ascorbate in Saliva 2, 425 nm light 32 J/cm^2, FIG. 5B): some reduction | influence on viral loads of human rhinovirus 1B (human rhinovirus 1B; 0.1, 1, 10 μM RFN in Saliva 1, 425 nm light up to 30 J/cm^2, FIG. 5A): little to no influence | change in HCoV-OC43 viral load compared with the 0 μM RFN sample [1]: significant decreases | reduction in viral loads of influenza B (influenza B): dramatic reduction | reductions in viral loads of MERS-CoV (MERS-CoV): greater than 99.999%
